What was measured:
Huh7 cells = test: EPO expression (ELISA of medium) from PB1-MinTK in Huh7 cells with CAR-containing plasmid, induction by CITCO; type: cell-based, human
Description: • Huh7 cells which are a human liver cell line • DPBS: without CaCl2, without MgCl2 (Gibco, 14190-094) • DMEM (Sigma, D6546) • FBS (Sigma, F9665) • Pen-Strep (Sigma, P4333) • Promega Fugene-HD (E2311) • TCPOBOP (Sigma, T2320) • CITCO (Cayman Chemicals Company, 16027) • pcDNA6 plasmid which contains the β-galactosidase gene used as internal control for transfection efficiency (Thermofisher, V22020) • mouse CAR expression plasmid from Jouan et al, 2016 (BioCat GmbH, EX-Z4288-M51-10-GC). This was used as Huh7 is CAR deficient. • β-galactosidase substrate solution (Thermofisher, 75707/75710) • Pierce BCA kit (23225) • LARII (Dual Luciferase Reporter 1000 assay system, Promega, E1980) • EPO ELISA kit (Abcam, ab119522) Method: Day 1 • Cells were seeded onto a 48 well plate at a density of 25,000 cells/300 μl Day 2 • On the day of transfection, DNA to be transfected (CAR plasmid/PB1-MinTK operably linked with luciferase or EPO/pcDNA6 plasmid for internal control) was diluted to a 100 ng/μl stock solution. Per 48 Well Transfection: • 45 ng of DNA (15 ng of each plasmid, pcDNA6, CAR and test plasmid) was mixed with 4.1 μl of Optimem medium. • 0.5 μl of Fusion HD was mixed with 4 μl of Optimem medium. • These 2 solutions were mixed and incubated at room temperature for 15 minutes. • The final solution was then added to the well drop wise. • 3 hrs after transfection, the inducer TCPOBOP was added to the appropriate wells at the indicated concentration. Day 3 • 24 hrs after induction the media was removed from the cells. • The cells were washed once in 300 μl of DPBS • Cells were lysed using 100 μl of passive lysis buffer and incubation with rocking for 15 minutes • The cell debris was pelleted by centrifugation of the plate at max speed in a benchtop centrifuge for 1 min • For luciferase, 10 μl sample was transferred into white 96-well plate and luminescence measured by injection of 50 μl of LARII substrate. • β-galactosidase activity was measured as per manufacturer's instructions (Mammalian β-Galactosidase Assay Kit, 75707/75710, Thermo Scientific) using 25 μl of lysate. 25 μl of lysate was transferred into a microplate well and mixed with 25 μl of β-galactosidase Assay Reagent, equilibrated to room temperature. The mixture was incubated at 37° C. for 30 min and absorbance measured at 405 nm. • Protein concentration was measured as per manufacturer's instructions (Pierce™ BCA Protein Assay Kit, 23225/23227, Thermo Scientific) using 25 μl of lysate. 25 μl of lysate was transferred into a microplate well and mixed with 200 μl of working solution. The mixture was incubated at 37° C. for 30 min, cooled to room temperature and then absorbance measured around 562 nm. The protein concentration was calculated with respect to protein standard curve prepared from assaying standards with known protein concentration.
Transfections with PB1-MinTk-EPO were performed as described above with the exception that EPO is secreted into the medium. Therefore, medium was collected, and EPO concentration measured as per manufacturer's instructions (ab119522 Erythropoietin (EPO) Human ELISA Kit, Abcam) using an ELISA assay. 50 μl of medium was transferred to a pre-washed microplate wells and mixed with 50 μl of 1× Biotin Conjugated Antibody. The mixture was incubated at room temperature for 1 hour. The wells were washed, 100 μl of Streptavadin-HRP was added and the plate was incubated at room temperature for 15 minutes. The wells were washed and then 100 μl of TMB Substrate Solution. The mixture was incubated at room temperature for 10 minutes. The enzyme reaction was stopped by addition of 100 μl of Stop Solution and absorbance was read at 450 nm. The EPO concentration was calculated with respect to EPO standard curve prepared from assaying standards with known EPO concentration.
The PB1-MinkTK promoter was then used to drive expression of the protein EPO, which is of therapeutic interest. […]

AXOL ARE-hepatocytes = test: Luciferase expression from PBREM promoters in AXOL ARE-hepatocytes, induction by CITCO; type: cell-based, human; settings: 1 μM CITCO, readout 24 hrs after induction
Description: Axol Assay-Ready Expanded (ARE) Hepatocytes are primary human hepatocytes that have been expanded in vitro. Large batch sizes (up to 2000 vials) are available, ensuring a reliable, ready-to-use and consistent source of primary hepatocytes. ARE Hepatocytes express CYP enzymes, are metabolically functional, are polarized and can be infected by the Hepatitis C virus. AXOL ARE-hepatocytes express CAR negating the need to transfect with a CAR-expressing plasmid.
• AXOL assay-ready expanded (ARE) hepatocytes (Axol, ax3701) • ARE hepatocyte thawing medium (Axol, ax3705) • ARE maintenance medium (Axol, ax3710) • Virimer red transfection reagent (Lipocalyx, VR04-02-15) • CITCO, lucifierase, β-galactosidase and BCA kits as described above
ARE hepatocytes were cultured and transfected as described in the manufacturer's manual. 200,000 cells were seeded in 2 ml culture medium in collagen-coated 6 well plate. The cells were incubated for 4 h at 37° C. and 5% CO2 for sufficient adhesion. 200 μl of transfection mixture containing the DNA to be transfected (PB1-MinTK/PB1-CMV/PB1-SV40 operably linked with luciferase and β-galactosidase containing promoter) was added and the cells were incubated on an orbital shaker at 100 rpm for three hours at 37° C. and 5% CO2. 3 hrs after transfection CITCO was added to the appropriate wells. Cells were incubated under static conditions at 37° C. and 5% CO2 overnight and in the morning the medium was replaced with fresh ARE Hepatocyte Maintenance Medium. Readout was 24 hrs after induction. […]

CD1 male mice = test: In vivo bioluminescence imaging of mice injected with AAV9 constructs, induction by phenobarbital; settings: AAV9 via tail vein
Description: • Seed HEK 293-AAV cells in 15 cm plates. To be 70-80% confluent on the day of transfection • Final volume on each plate: 15 ml Day 2: Prepare Transfection Mix: • DNA mix/plate: pDG9 (Packaging plasmid for AAV9): 10.5 μg/pHGTI (Ad. Helper plasmid): 31.5 μg/Vector plasmid: 10.5 μg/Prepare in serum free DMEM/Optimem • Transfer mix/plate: PEI: 125 μl/Prepare in serum free DMEM/Optimem • Add DNA mix into transfection mix. Mix and leave at room temperature for 15-20 mins. • Add 3 ml of transfection mix to each plate drop-wise and gently distribute. Incubate for 24 h. Day 3: • Replace media with 15 ml DMEM supplemented with P/S and 2% FCS. Leave for 48 h. Day 5: • Collect supernatant and pool in 50 ml tubes, 25 ml each tube. Store at −20° C. • Collect cells: Add 5 ml of PBS to each plate→scrape and collect in 50 ml tubes. • To wash plates, add another 1 ml of PBS and collect. • Spin at 1500 rpm for 5 mins. • Remove supernatant and resuspend pelleted cells in 1 ml/plate TD lysis buffer→pool • Store at −80′C. Endonuclease Treatment Cells: • Freeze and thaw pellets 5 times→˜20 mins at 37° C. then ˜20 mins in dry ice (or −80° C.). • Add 25 μl/ml cells of 20% Deoxycholate (or 50 μl/ml of 10% Deoxycholate). • Add 8 μl/ml cells of benzonase. • Incubate at 37° C. for 30 mins. • Spin at 4 Krpm for 30 mins. • Filter supernatant using […] filters. • Store at 4° C. for up to 24 h. Supernatant: • Add 2.5 μl/25 ml supernatant of benzonase. • Add 50 μl/25 ml supernatant of MgSO4. • Incubate at 37° C. for 30 mins. • Spin at 4 Krpm for 30 mins. • Filter supernatant using […] filters. • Store at 4′C for up to 24 h. Hplc Purification • Place both lines in 20% ETOH→template→system wash • Put line A in PBS and line B in Glycine→template→system wash • Place the column in the machine→manual run→flowrate: 5 ml/min→Run for 25 ml or until the UV line is flat. • Prepare FACS tubes (10 for cells and more for supernatant): add 30 μl/tube Tris→put in the machine to collect vectors. • Place the waste lines in a separate tube to be able to run them again through the column. • Run samples (flowrate low, depending on how fast the system and how concentrated the sample is; for cells it is slower, for supernatant it is higher). • After running the waste through the column, wash with PBS→flowrate: 5 ml/min until the UV line is flat. • Set→fraction size: 1 ml; Flowrate: 1 ml/min; concentration % B: 100%→run. • Start collecting: Look for the peak. The peak indicates vector purification. Mark the tubes containing these vectors. • Save programme before exiting. • Wash with PBS→75 ml, 5 ml/min • Wash with Na3PO4 (to store the column in)→75 ml, 5 ml/min • Remove column and store at 4° C. • Wash the machine with PBS→template→system wash • Wash the machine with 20% ETOH→template→system wash • Put both lines in 20% ETOH and shut down • Add 2 L of PBS into a big bucket and put the Dialysis cassette (Side-A-Lyzer; Thermo scientific) to prime. • Collect the vectors from the marked FACS tubes using a syringe and needle and add into the dialysis cassette→remove excess air from the membrane, carefully place the rubber on top of the cassette and let it float in the PBS-containing bucket→leave over night at room temperature on a slow rotating rotor. Next Day: • Prime membrane by adding 5 ml PBS onto a centrifugal filter (Amico Ultra 15; MERCK)→spin for 5 mins at 4 Krpm • Remove excess PBS from inside the membrane. • Take vectors out from the cassette and load onto the membrane→spin for 5 mins at 4 Krpm • Wash the membrane with the vectors inside few times, then collect into 2 ml centrifuge tube filter 0.22 μM (Spin-X; COSTAR) • Spin for 3 mins at 13 Krpm. • Remove filter and aliquot: 1×100 μl (for injection), the rest in 10-2 μl aliquots. • Store in −80° C. • Virus quantification was performed using qRT-PCR with primers and probes for the luciferase gene. Mice Experiment […]

In the case of `Clc1ccc(-c2nc3sccn3c2C=NOCc2ccc(Cl)c(Cl)c2)cc1` [CITCO, 6-(4Chlorophenyl)imidazo[2,1-b][1,3]thiazole-5-carbaldehyde-O-(3,4-dichlorobenzyl)oxime, reference compound], the “strength as inducer of CAR activity” value (Huh7 cells; 22% vs 40% of CMV-IE with PB1-MinTK) is reported as “weaker inducer of CAR activity than TCPOBOP”.

With “CMV-MP: CMV minimal promoter driving EPO in pGL4.10, SEQ ID NO: 54 [reference compound]” the “change of EPO expression on addition of CITCO” value (Huh7 cells; 0.5 μM, 1 μM, 2 μM and 3 μM CITCO) was “does not change the EPO expression”.

B1: CMV-IE: strong viral CMV-IE comparative promoter, SEQ ID NO: 52 (nucleic acid)
DNA: GACATTGATTATTGACTAGTTATTAATAGTAATCAATTACGGGGTCATTAGTTCATAGCCCATATATGGAGTTCCGCGTTACATAACTTACGGTAAATGGCCCGCCTGGCTGACCGCCCAACGACCCCCGCCCATTGACGTCAATAATGACGTATGTTCCCATAGTAACGCCAATAGGGACTTTCCATTGACGTCAATGGGTGGAGTATTTACGGTAAACTGCCCACTTGGCAGTACATCAAGTGTATCATATGCCAAGTACGCCCCCTATTGACGTCAATGACGGTAAATGGCCCGCCTGGCATTATGCCCAGTACATGACCTTATGGGACTTTCCTACTTGGCAGTACATCTACGTATTAGTCATCGCTATTACCATGGTGATGCGGTTTTGGCAGTACATCAATGGGCGTGGATAGCGGTTTGACTCACGGGGATTTCCAAGTCTCCACCCCATTGACGTCAATGGGAGTTTGTTTTGGCACCAAAATCAACGGGACTTTCCAAAATGTCGTAACAACTCCGCCCCATTGACGCAAATGGGCGGTAGGCGTGTACGGTGGGAGGTCTATATAAGCAGAGCT
modifications: CMV-IE comparative promoter
With B1 the “induction of luciferase expression” value (AXOL ARE-hepatocytes) was roughly 2 fold and the “tissue distribution of luciferase expression” value (CD1 male mice) was “expressing in almost all tissues of the mouse”.
